From ChEMBL document CHEMBL1150168, “Scabrolides A-D, four new norditerpenoids isolated from the soft coral Sinularia scabra” (2002)
Converted amounts (≈) assume the structure as drawn.

Columns and labels:
KB = assay: Cytotoxicity against human KB cells by MTT assay; type: functional; details: read-out: ED50 (the source's name)
[1] = Cytotoxicity against human HEPA 59T/VGH cells by MTT assay; type: functional; details: read-out: ED50 (the source's name)

Structure (SMILES)	EC50 (KB) [µg/mL]	EC50 [1] [µg/mL]
C=C(C)[C@@H]1CC(=O)[C@H]2[C@H](C1)[C@@H]1C(=O)O[C@@H]3C[C@@]4(C)O[C@@H]2C(=O)[C@@H]4[C@H]13	> 20	> 20
C=C(C)[C@H]1C/C=C2\C(=O)O[C@H](C[C@@]3(C)CC(=O)[C@@H](CC(=O)C1)O3)[C@H]2O	2.3 (≈ 6.6 µM)	2.4 (≈ 6.89 µM)
C=C(C)[C@H]1C/C=C2\C(=O)O[C@H](C[C@@]3(C)CC(=O)[C@@H](CC(=O)C1)O3)[C@@H]2O	2.5 (≈ 7.18 µM)	2.6 (≈ 7.46 µM)
COc1cccc2c1C(=O)c1c(O)c3c(c(O)c1C2=O)C[C@@](O)(C(=O)CO)C[C@@H]3O[C@H]1C[C@H](N)[C@H](O)[C@H](C)O1 [DOXORUBICIN]	0.3 (≈ 0.552 µM)	0.3 (≈ 0.552 µM)
C=C(C)[C@H]1C/C=C(\C(=O)OC)CC(=O)C[C@@]2(C)CC(=O)[C@@H](CC(=O)C1)O2 [NORCEMBRENE 5]	> 20	17.5 (≈ 48.3 µM)
C=C(C)[C@@H]1CC(=O)CC2=C(C1)[C@@H]1C(=O)O[C@@H]3C[C@](C)(O)[C@H](C2=O)[C@H]13 [SCABROLIDE A]	> 20	> 20
C=C(C)[C@@H]1CC(=O)C[C@@H]2O[C@](C)(CC2=O)C[C@@H]2C=C(C(=O)O2)[C@@H](OC)C1 [SCABROLIDE C]	11.9 (≈ 32.8 µM)	17.8 (≈ 49.1 µM)
C=C(C)[C@H]1CC[C@]23O[C@H]2[C@@H](C[C@@]2(C)CC(=O)[C@H](CC(=O)C1)O2)OC3=O [SCABROLIDE D]	> 20	> 20
